From US20110052678A1, “METHOD FOR TREATING AGE RELATED MACULAR DEGENERATION” (priority 2010, published 2011)

Columns and labels:
patients [1] = assay: Clinical use of MSM ophthalmic drops by the inventor; type: in vivo, human
Source text: We have used aqueous solutions of MSM filtered, sterilized, and mixed with insulin.

[2] = water; cited from earlier work
[3] = test system: individuals with macular edema; conditions: fluorescein angiography; cited from earlier work
[4] = in vivo; cited from earlier work
patients [5] = conditions: supplementation; cited from earlier work
[6] = after oral intake; cited from earlier work
[7] = test system: dry mouth and dry eyes conditions; assay: Clinical use of ADT orally and as eye drops; type: in vivo; conditions: 25 mg orally and nanograms concentration in eye drops
Experimental: We have used ADT 25 mg orally and ADT in nanograms concentration in liquid ophthalmic eye drops with success in these conditions, especially, those on chemotherapy, menopausal women, and chronic smokers with dry mouth and dry eyes conditions. There is secretory dysfunction associated with RPE and Muller cells which are needed for proper functioning of the photoreceptors by removing ROS. This can be one of the important non toxic oral and eye drops for the treatment of age related macular degeneration (Ben-Mandi M H, Gozin A, Driss F, Andrieu V, Christen M O, Pasquier C. Anethole dithiolethione regulates oxidant-induced tyrosine kinase activation in endothelial cells. Antioxid Redox Signal. 2000 Winter, 2 (4):789-99). […] (Han S F, Yao T T, Zhang X X, Gan L, Zhu C, Yu H Z, Gan Y. Int J Pharm. Lipid-based formulations to enhance oral bioavailability of the poorly water-soluble drug anetholtrithione: effects of lipid composition and formulation. 2009 Sep. 8; 379(1):18-24. Epub 2009 Jun. 7.).

[8] = test system: patients with neovascular ARMS; conditions: intravitreous 1.25 mg injections; cited from earlier work
photoreceptor cell = conditions: in vitro model; cited from earlier work
[9] = cited from earlier work
[10] = local application incl. conjunctival sac, scalp, gums, wounds
Source text: The present invention formulations contain only 0.10 to 1.00 IU per drop which the dosage can be increased or the dosage can be decreased depending upon the disease states.

oxidized cells = conditions: H2O2 induced, insulin pretreatment; cited from earlier work

Compound: CS(C)(=O)=O [MSM, Methylsulfonylmethane]
- treatment outcome (patients [1]; aqueous MSM mixed with insulin as eye drops, ARMD, retinitis pigmentosa, cataract, dry eye, glaucoma): good results
- patient-reported vision (patients [1]; ophthalmic drops, aged, Lyme disease and cancer patients): their vision had improved
- solubility [2]: soluble in water

Compound: CC(=O)Nc1nnc(S(N)(=O)=O)s1 [acetazolamide]
- leakage of dye into the photoreceptor area [3]: inhibited

Compound: Insulin detemir
- Peak action in hours [4]: 6 to 8 h

Compound: Insulin glargine
- Peak action in hours [4]: 8 to 16 h

Compound: NPH (isophane): intermediate-acting NPH (isophane) insulin
- Peak action in hours [4]: 6 to 10 h

Compound: Regular (soluble): short-acting regular (soluble) insulin
- Peak action in hours [4]: 2 to 3 h

Compound: Vitamin A
- postponement of blindness (patients [5]): ~10 years
- time to peak blood concentration [6]: one

Compound: anethole dithiolethione [ADT]
- treatment outcome [7]: success

Compound: bevacizumab
- patients improved 10 or more letters [8]: more than 45%

Compound: brimonidine tartrate
- photoreceptor cell degeneration (photoreceptor cell): prevent photoreceptor cell degeneration

Compound: hyaluronic acid
- pH ([9]; 0.1% solution): 6.0-7.5
- water contained relative to own weight ([9]; hydrated): up to 1,000 fold

Compound: insulin
- change of blood sugar levels (hypoglycemic effect) [10]: did not change the blood sugar levels
- lipid peroxidation (oxidized cells): significantly inhibited
